Results published in US9469631B2 (Boehringer Ingelheim International GmbH, priority 2012, dated 2016).

What follows are compounds tested against human GPR119 (Homo sapiens (Human), UniProt Q8TDV5) (assay: AlphaScreen cAMP assay in MIN6 cells stably transfected with human GPR119). Details: Min-6/hGPR119 cells, 45 min incubation at room temperature.
Assay type: cell-based
Description: The compounds of formula I according to the invention modulate the activity of the G-protein-coupled receptor GPR119. The effect of the compounds on the activation of GPR119 and on the stimulation of intracellular cAMP concentration is determined using the AlphaScreen cAMP Assay Kit (Cat. No. #6760625R) made by PerkinElmer.
MIN6 cells [Miyazaki J et al. Endocrinology. 1990 July; 127(1):126-32] are stably transfected with an expression vector for human GPR119 cDNA (Acc. No. NP_848566). Min-6/hGPR119 cells are cultured in DMEM, 10% FBS, 50 μM β-mercaptoethanol, 0.3 mg/mL Geniticin, 2 mM GlutaMAX at 37° C. 5% CO2. For the assay, the cells are seeded in Optiplates (white, 384-well, 160W-barcoded, TC, sterile with lid, Cat. No. #6007688 (Perkin Elmer); 10000 cells/well; 50 μl). The plates covered with lids are then incubated for 24 hours at 37° C./5% CO2. After the medium is aspirated from the wells completely, 10 μl of the test compound are added, the compounds are diluted using stimulating buffer (140 mM NaCl, 3.6 mM KCl, 0.5 mM NaH2PO4, 0.5 mM MgSO4, 1.5 mM CaCl2, 10 mM Hepes, 5 mM NaHCO3; pH 7.4. 0.5 mM IBMX and 0.1% BSA, the final DMSO concentration is 1%). After 45 minutes incubation at room temperature (approx. 20° C.), the cAMP concentrations are determined using the AlphaScreen cAMP Assay Kit (Cat. No. #6760625R from PerkinElmer).

Chain of human GPR119 (Q8TDV5 whole entry): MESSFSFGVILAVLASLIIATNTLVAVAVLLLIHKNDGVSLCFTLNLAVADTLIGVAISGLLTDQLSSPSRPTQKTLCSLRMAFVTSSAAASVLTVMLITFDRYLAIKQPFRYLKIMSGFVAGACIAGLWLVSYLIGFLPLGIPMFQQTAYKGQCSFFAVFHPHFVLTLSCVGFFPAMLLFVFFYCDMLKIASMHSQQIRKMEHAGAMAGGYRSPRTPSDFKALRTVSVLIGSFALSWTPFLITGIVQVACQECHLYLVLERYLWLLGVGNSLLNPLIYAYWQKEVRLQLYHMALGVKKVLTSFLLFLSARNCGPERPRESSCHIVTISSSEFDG

Row | Structure (SMILES) | EC50
1 | O=C(Oc1ccccc1)N1CCC(N(C(=O)c2ccc(-c3cnco3)cc2)C2CC2)CC1 [Example 124, 4-[Cyclopropyl-(4-oxazol-5-yl-benzoyl)-amino]-piperidine-1-carboxylic acid phenyl ester] | 88 nM
2 | Cc1cncnc1-c1ccc(C(=O)N(C2CC2)C2CCN(C(=O)OC(C)(C)C)CC2)cc1 [Example 27, 4-{Cyclopropyl-[4-(5-methyl-pyrimidin-4-yl)-benzoyl]-amino}-piperidine-1-carboxylic acid tert-butyl ester] | 469 nM
3 | COc1ncc(-c2ccc(C(=O)N(C3CC3)C3CCN(C(=O)OC(C)(C)C)CC3)cc2)cn1 [Example 99, 4-{Cyclopropyl-[4-(2-methoxy-pyrimidin-5-yl)-benzoyl]-amino}-piperidine-1-carboxylic acid tert-butyl ester] | 55 nM
4 | Cn1cnc(-c2ccc(C(=O)N(C3CC3)C3CCN(C(=O)OC(C)(C)C)CC3)cc2)n1 [Example 17, 4-{Cyclopropyl-[4-(1-methyl-1H-[1,2,4]triazol-3-yl)-benzoyl]-amino}-piperidine-1-carboxylic acid tert-butyl ester] | 2220 nM
5 | Cc1nc(-c2ccc(C(=O)N(C3CC3)C3CCN(C(=O)OC(C)(C)C)CC3)cc2)no1 [Example 67, 4-{Cyclopropyl-[4-(5-methyl-[1,2,4]oxadiazol-3-yl)-benzoyl]-amino}-piperidine-1-carboxylic acid tert-butyl ester] | 316 nM
6 | Cc1cc(C(=O)N(C2CC2)C2CCN(C(=O)OC(C)(C)C)CC2)ccc1-c1cnco1 [Example 24, 4-[Cyclopropyl-(3-methyl-4-oxazol-5-yl-benzoyl)-amino]-piperidine-1-carboxylic acid tert-butyl ester] | 81 nM
7 | O=C(OC1CCOCC1)N1CCC(N(C(=O)c2ccc(-c3cnco3)cc2)C2CC2)CC1 [Example 11, 4-[Cyclopropyl-(4-oxazol-5-yl-benzoyl)-amino]-piperidine-1-carboxylic acid tetrahydro-pyran-4-yl ester] | 516 nM
8 | COc1cc(C(=O)N(C2CC2)C2CCN(C(=O)OC(C)(C)C)CC2)ccc1-c1cnco1 [Example 9, 4-[Cyclopropyl-(3-methoxy-4-oxazol-5-yl-benzoyl)-amino]-piperidine-1-carboxylic acid tert-butyl ester] | 650 nM
9 | CC(C)(C)OC(=O)N1CCC(N(C(=O)c2ccc(-c3ccncc3C#N)cc2)C2CC2)CC1 [Example 29, 4-{[4-(3-Cyano-pyridin-4-yl)-benzoyl]-cyclopropyl-amino}-piperidine-1-carboxylic acid tert-butyl ester] | 27 nM
10 | CCOc1ccc(-c2ccc(C(=O)N(C3CC3)C3CCN(C(=O)OC(C)(C)C)CC3)cc2)cn1 [Example 109, 4-{Cyclopropyl-[4-(6-ethoxy-pyridin-3-yl)-benzoyl]-amino}-piperidine-1-carboxylic acid tert-butyl ester] | 316 nM
11 | CN(C)c1ccc(-c2ccc(C(=O)N(C3CC3)C3CCN(C(=O)OC(C)(C)C)CC3)cc2)cn1 [Example 114, 4-{Cyclopropyl-[4-(6-dimethylamino-pyridin-3-yl)-benzoyl]-amino}-piperidine-1-carboxylic acid tert-butyl ester] | 229 nM
12 | CC(C)(C)OC(=O)N1CCC(N(C(=O)c2ccc(-c3cn[nH]c3)cc2)C2CC2)CC1 [Example 12, 4-{Cyclopropyl-[4-(1H-pyrazol-4-yl)-benzoyl]-amino}-piperidine-1-carboxylic acid tert-butyl ester] | 240 nM
13 | CC(=O)NCc1ccc(-c2ccc(C(=O)N(C3CC3)C3CCN(C(=O)OC(C)(C)C)CC3)cc2)cc1 [Example 104, 4-{[4′-(Acetylamino-methyl)-biphenyl-4-carbonyl]-cyclopropyl-amino}-piperidine-1-carboxylic acid tert-butyl ester] | 333 nM
14 | Cc1nnnn1-c1ccc(C(=O)N(C2CC2)C2CCN(C(=O)OC(C)(C)C)CC2)cc1 [Example 26, 4-{Cyclopropyl-[4-(5-methyl-tetrazol-1-yl)-benzoyl]-amino}-piperidine-1-carboxylic acid tert-butyl ester] | 224 nM
15 | CC(C)(C)OC(=O)N1CCC(N(C(=O)c2ccc(-c3cccnc3)cc2)C2CC2)CC1 [Example 75, 4-[Cyclopropyl-(4-pyridin-3-yl-benzoyl)-amino]-piperidine-1-carboxylic acid tert-butyl ester] | 651 nM
16 | Cc1ncc(-c2ccc(C(=O)N(C3CC3)C3CCN(C(=O)OC(C)(C)C)CC3)cc2)o1 [Example 43, 4-{Cyclopropyl-[4-(2-methyl-oxazol-5-yl)-benzoyl]-amino}-piperidine-1-carboxylic acid tert-butyl ester] | 149 nM
17 | Cn1cncc1-c1ccc(C(=O)N(C2CC2)C2CCN(C(=O)OC(C)(C)C)CC2)cc1 [Example 42, 4-{Cyclopropyl-[4-(3-methyl-3H-imidazol-4-yl)-benzoyl]-amino}-piperidine-1-carboxylic acid tert-butyl ester] | 152 nM
18 | CC(C)(C)OC(=O)N1CCC(N(C(=O)c2ccc(-c3cnco3)cc2F)C2CC2)CC1 [Example 35, 4-[Cyclopropyl-(2-fluoro-4-oxazol-5-yl-benzoyl)-amino]-piperidine-1-carboxylic acid tert-butyl ester] | 45 nM
19 | CC(C)(C)OC(=O)N1CCC(N(C(=O)c2ccc(-c3ccc(S(C)(=O)=O)cc3)cc2)C2CC2)CC1 [Example 93, 4-[Cyclopropyl-(4′-methanesulfonyl-biphenyl-4-carbonyl)-amino]-piperidine-1-carboxylic acid tert-butyl ester] | 177 nM
20 | CC(C)(C)NS(=O)(=O)c1ccccc1-c1ccc(C(=O)N(C2CC2)C2CCN(C(=O)OC(C)(C)C)CC2)cc1 [Example 97, 4-[(2′-tert-Butylsulfamoyl-biphenyl-4-carbonyl)-cyclopropyl-amino]-piperidine-1-carboxylic acid tert-butyl ester] | 161 nM
21 | CC(C)OC(=O)N1CCC(N(C(=O)c2ccc(-c3cnco3)cc2)C2CC2)CC1 [Example 118, 4-[Cyclopropyl-(4-oxazol-5-yl-benzoyl)-amino]-piperidine-1-carboxylic acid isopropyl ester] | 62 nM
22 | COc1ccc(-c2ccc(C(=O)N(C3CC3)C3CCN(C(=O)OC(C)(C)C)CC3)cc2)cn1 [Example 96, 4-{Cyclopropyl-[4-(6-methoxy-pyridin-3-yl)-benzoyl]-amino}-piperidine-1-carboxylic acid tert-butyl ester] | 131 nM
23 | Cn1cc(-c2ccc(C(=O)N(C3CC3)C3CCN(C(=O)OC(C)(C)C)CC3)cc2)cn1 [Example 13] | 423 nM
24 | CNC(=O)Nc1nnc(-c2ccc(C(=O)N(C3CC3)C3CCN(C(=O)OC(C)(C)C)CC3)cc2)s1 [Example 82, 4-(Cyclopropyl-{4-[5-(3-methyl-ureido)-[1,3,4]thiadiazol-2-yl]-benzoyl}-amino)-piperidine-1-carboxylic acid tert-butyl ester] | 402 nM
25 | CCNC(=O)c1ccc(-c2ccc(C(=O)N(C3CC3)C3CCN(C(=O)OC(C)(C)C)CC3)cc2)cc1 [Example 103, 4-[Cyclopropyl-(4′-ethylcarbamoyl-biphenyl-4-carbonyl)-amino]-piperidine-1-carboxylic acid tert-butyl ester] | 51 nM
